Laboratory results from patent US8486123B2, “Micro-organism-reducing device” (bredent medical GmbH & Co., KG, priority 2003, dated 2013).

Tests used:
[1] = penetration depth of MB solutions into normal oral mucosa; settings: after 10-min incubation time
Source text: The clinical application of PDT is possible since the stain solutions selectively color cell systems, while the interaction with the epithelium is very limited. […] Furthermore, the life expectancy of the active radicals and their precursors is microseconds, so that it is practically assured that there are no concomitant destructive effects in healthy tissue due to diffusion, since there is not enough time for this.

[2] = tested on: colon tumors; settings: 20 μg/mL, intratumorally applied, without irradiation; cited from earlier work
[3] = tested on: Gram positive bacteria; test: in vitro reduction of Gram positive bacteria by methylene blue solutions; assay type: cell-based
Source text: Methylene blue solutions reduce almost all Gram positive bacteria in a concentration of 25-44 μmol in vitro.

[4] = tested on: all examined microorganisms; test: in vitro reduction of microorganisms by methylene blue solutions in culture medium; assay type: cell-based; settings: culture medium being used
[5] = tested on: Gram negative germs; test: complete reduction of Gram negative germs; assay type: cell-based; settings: compared with 25-44 μmol for Gram positive bacteria
Source text: (§1) Completely reducing Gram negative germs requires 3-30 times higher concentrations. P. aeruginosa was reduced […] by 3.5 log10 CFU at a concentration of 200˜mol and an energy density of 100 mW/cm^2.

[6] = tested on: P. aeruginosa; test: photodynamic reduction of P. aeruginosa; assay type: cell-based; settings: concentration of 200˜mol; energy density of 100 mW/cm^2
Source text: as §1

[7] = distribution coefficient P; assay type: physicochemical
[8] = tested on: Gram positive and Gram negative bacteria; test: dark toxicity of the stains for bacteria; assay type: cell-based; settings: TB compared with MB, without irradiation
Method: The observed dark toxicity was higher for toluidine blue (TB) than for methylene blue (MB). This is consistent with the distribution coefficient P that was determined to be 0.33 for TB and 0.11 for MB.
While dark toxicity for Gram positive bacteria was nearly unrelated to type, the dark toxicity for Gram negative bacteria is quite clearly a function of type and specifically corresponds to the trans-membrane permeability coefficient of the exterior membrane of Gram negative bacteria.
Dark toxicity was a function of both the concentration and the incubation period prior to irradiation.

SMILES	penetration depth into the epithelium [1]	destruction of colon tumors by the substance alone [2]	concentration that reduces almost all Gram positive bacteria [3]	reduction of the number of microorganisms in the culture medium [4]	concentration needed for completely reducing Gram negative germs, relative to Gram positive bacteria [5]	reduction of P. aeruginosa [6]	distribution coefficient P [7]	observed dark toxicity [8]
CN(C)c1ccc2nc3ccc(=[N+](C)C)cc-3sc2c1 [Methylene blue, phenothiazin-5-ium, 3,7-bis(dimethylamino)-chloride]	1-2 exterior layers of cells	not destroyed	25 to 44 µmol	able to reduce the number of all examined microorganisms	3-30 times higher	3.5 log10 CFU		
Cc1cc2nc3ccc(N(C)C)cc3[s+]c2cc1N.[Cl-] [TB, toluidine blue]							0.33	higher
